Experimental data reported in paper PMC6405842, “Identification of a novel scaffold for a small molecule GPR139 receptor agonist” (Scientific Reports, 2019).
Like-named read-outs stand apart in the source and are kept apart here.

Legend:
GPR139 [1] = target: T1, GPR139 (Homo sapiens, UniProt Q6DWJ6); experiment: Fluo-4 calcium mobilization assay, agonist mode, concentration-response curves in CHO-GPR139 cells; type: cell-based; conditions: CHO-GPR139 cells; for EC50: at least three independent concentration-response curves in duplicate, read-out: EC50; for Emax ± S.E.M.: normalized to buffer (0%) and 8 μM 1a (100%)
T1 construct: host or cells: CHO-k1
T1 sequence (Q6DWJ6 1-353): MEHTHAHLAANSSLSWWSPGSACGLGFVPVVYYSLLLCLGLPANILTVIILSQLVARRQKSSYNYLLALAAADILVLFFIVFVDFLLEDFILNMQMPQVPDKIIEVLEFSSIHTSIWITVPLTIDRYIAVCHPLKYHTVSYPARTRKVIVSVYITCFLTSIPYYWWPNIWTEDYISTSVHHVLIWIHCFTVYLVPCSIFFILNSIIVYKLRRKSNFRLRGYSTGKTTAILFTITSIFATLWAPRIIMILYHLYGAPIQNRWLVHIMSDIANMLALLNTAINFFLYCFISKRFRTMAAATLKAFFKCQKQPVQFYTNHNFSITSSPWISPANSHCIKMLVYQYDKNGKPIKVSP
Description: (§1) All compounds were tested on a CHO-k1 cell line stably expressing GPR139 (CHO-GPR139)[11] kindly provided by H. Lundbeck A/S, Denmark. GPR139-specific responses were assessed using a CHO-k1 cell line stably expressing the muscarinic acetylcholine receptor M1 (CHO-M1) (The Missouri S&T cDNA Resource Center, # CEM100TN00). The CHO-GPR139 cells were grown in Dulbecco’s modified Eagle’s medium (DMEM) F12-Kaighn’s (ThermoFisher Scientific # 21127) supplemented with 10% dialyzed fetal bovine serum (United States origin; ThermoFisher Scientific # 26400), 1% GlutaMAX-I (100X) (ThermoFisher Scientific # 35050061), and 100 units/mL penicillin and 100 µg/mL streptomycin (ThermoFisher Scientific # 15140122) and 1 mg/mL geneticin (ThermoFisher Scientific # 11811031). The CHO-M1 cells were grown in Ham’s F12 (ThermoFisher Scientific # 21765) supplemented with 10% fetal bovine serum (South American origin; ThermoFisher Scientific # 10270) + 100 units/mL penicillin and streptomycin and 0.25 mg/mL geneticin.
The Fluo-4 Ca^2+-assay was performed as described previously, with minor modifications. After 1 hour incubation with the Fluo-4 dye, the CHO-GPR139 cells were washed with 100 μL HEPES buffer (Hank’s Balanced Salt Solution (HBBS, ThermoFisher Scientific # 14175053) supplemented with 20 mM HEPES, 1 mM MgCl2, 1 mM CaCl2, pH = 7.4) and the compound library was then added in concentrations between 25–63 μM dissolved in HEPES buffer (supplemented with 2.5 mM probenecid and 1% DMSO) and pre-incubated for 10 min at 37 °C. 33 μL of 3.2 μM 1a were added automatically after baseline measurements. […] This set-up allowed us to identify both antagonists and agonists (Fig. 2).
Each compound, for which a concentration response curve was made, was tested at least three times in duplicate measurements. After the incubation with the Fluo-4 dye and a wash, 100 μL HEPES buffer (supplemented with 2.5 mM probenecid) was added to each well and incubated for 10 minutes at 37 °C before recording. 33 μL of compounds (4× concentrated) were added automatically after baseline measurements.
(§2) The Ca^2+ and ERK responses were normalized as indicated and the concentration response curves were fitted by Prism 6 software (GraphPad) using nonlinear regression in a sigmoidal model with variable slope, as has been previously described.

[2] = target: T2, muscarinic acetylcholine receptor M1 (Homo sapiens, UniProt P11229); experiment: Calcium mobilization counter-screen in CHO-M1 cells; type: cell-based; conditions: concentration from which the calcium response is nonspecific
T2 construct: host or cells: CHO-k1
T2 sequence (P11229 1-460): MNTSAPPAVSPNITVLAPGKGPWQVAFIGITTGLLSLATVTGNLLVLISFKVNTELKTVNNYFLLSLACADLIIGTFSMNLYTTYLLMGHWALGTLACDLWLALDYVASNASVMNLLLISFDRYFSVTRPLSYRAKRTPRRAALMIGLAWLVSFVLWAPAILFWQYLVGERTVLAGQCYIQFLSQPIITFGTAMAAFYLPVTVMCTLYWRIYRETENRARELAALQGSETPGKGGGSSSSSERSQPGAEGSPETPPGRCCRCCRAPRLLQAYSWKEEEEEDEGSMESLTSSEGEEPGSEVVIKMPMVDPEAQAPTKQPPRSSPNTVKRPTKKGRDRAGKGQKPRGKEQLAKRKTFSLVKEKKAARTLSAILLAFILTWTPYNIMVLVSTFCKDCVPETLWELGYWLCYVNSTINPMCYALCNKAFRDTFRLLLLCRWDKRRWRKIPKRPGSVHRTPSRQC
Description: as §1
The primary screening of 4,000 diverse screening compounds on GPR139, led us to identify 108 initial actives in GPR139-expressing cells. […] We excluded compounds that had (1) an effect on another simultaneously tested GPCR (data not shown), (2) reactive groups, or (3) poor predicted solubility. 52 of the active compounds were re-purchased for validation, which were tested at three concentrations (100, 50 and 25 μM) using the same methodology as in the screening campaign. […] None of the 11 hits promoted calcium mobilization in the M1 receptor cells (data not shown). The 11 hits were then screened in pure agonist mode (i.e., without the presence of 1a) to evaluate if they were agonists or antagonists (Fig. 3 and Supplementary Table S1). All 11 hits were agonists.
When screening the compounds as antagonists they were pre-incubated for 10 min as in the HTS. 33 μL of 3.2 μM 1a on the CHO-GPR139 cells or 20 μM carbachol on the CHO-M1 cells were added automatically after baseline measurements.

GPR139 [3] = target: T1, GPR139; conditions: proposed endogenous GPR139 ligands; cited from earlier work
GPR139 [4] = target: T1, GPR139; experiment: Phospho-ERK1/2 HTRF assay in CHO-GPR139 cells; type: cell-based; conditions: ERK phosphorylation; for pEC50 ± SEM / EC50: CHO-GPR139 cells; for EC50: 5 minute stimulation, read-out: EC50; for Emax ± SEM: expressed relative to FBS positive control
Description: All compounds were tested on a CHO-k1 cell line stably expressing GPR139 (CHO-GPR139)[11] kindly provided by H. Lundbeck A/S, Denmark. GPR139-specific responses were assessed using a CHO-k1 cell line stably expressing the muscarinic acetylcholine receptor M1 (CHO-M1) (The Missouri S&T cDNA Resource Center, # CEM100TN00).
Phospho-ERK measurements were made using the Advanced Phospho-ERK1/2 (Thr202/Tyr204) HTRF kit by Cisbio (Codolet, France). Approximately 24 hours prior to the experiment, CHO-GPR139 cells were plated at 50,000 cells/well onto a 96-well plate and cultured as detailed above. Approximately 6 hours later, the media was aspirated, replaced with 50 μL serum-free media, and the cells were allowed to serum starve overnight. The day of the experiment, serial dilutions of the test compounds and controls were made in serum-free media at 2x final concentration. 50 μL of test compounds were added directly to the appropriate wells for 5 minute stimulation at 37 °C. At this point, the media and compounds were rapidly aspirated, lysis/blocking buffer was added, and cells were lysed on a shaker for 30 minutes at room temperature.
as §2

Molecule | pEC50 ± S.E.M. (GPR139 [1]) | EC50 (GPR139 [1]) [nM] | Emax ± S.E.M. (GPR139 [1]) [%] | Note: Nonspecific ≥ concentration [2] | pEC50 ± SEM (GPR139 [4]) | EC50 (GPR139 [4]) [nM] | Emax ± SEM (GPR139 [4]) | EC50 (GPR139 [3]) [nM]
ACTH: adrenocorticotropic hormone, proposed endogenous GPR139 ligand (SYSMEHFRWGKPVGKKRRPVKVYPNGAEDESAEAFPLEF; Corticotropin; UniProt P01189 138-176, looked up) |  |  |  |  |  |  |  | 2100
COc1cccc(C(=O)CN2C(=O)NC(C)(c3ccc(Cl)cc3)C2=O)c1 (stereo not drawn) [AC225] | 6.56 ± 0.05 | 280 | 120 ± 5 | Nonspecific ≥ 10 μM |  |  |  | 
CCCCC/C=C/C/C=C/CCCCCCCC(=O)NC(C)c1ccccc1 (stereo not drawn) [AC223] |  |  |  | Nonspecific ≥ 50 μM |  |  |  | 
CC1Cc2ccccc2N1C(=O)CN1C(=O)NC(C)(c2ccc3c(c2)OCCO3)C1=O (stereo not drawn) [AC208] | 6.05 ± 0.60 | 880 | 134 ± 26 | Nonspecific ≥ 30 μM |  |  |  | 

Further lines, with some results ahead:

pEC50 ± S.E.M. (GPR139 [1]) | EC50 (GPR139 [1]) [nM] | Emax ± S.E.M. (GPR139 [1]) [%] | Note: Nonspecific ≥ concentration [2] | pEC50 ± SEM (GPR139 [4]) | EC50 (GPR139 [4]) [nM] | Emax ± SEM (GPR139 [4]) | Molecule | EC50 (GPR139 [3]) [nM]
6.09 ± 0.15 | 800 | 103 ± 5 | Nonspecific ≥ 40 μM |  |  |  | CC1(c2ccc3c(c2)OCO3)NC(=O)N(CC(=O)c2ccc(Cl)s2)C1=O (stereo not drawn) [AC134] | 
6.13 ± 0.14 | 740 | 104 ± 1 | Nonspecific ≥ 10 μM |  |  |  | CC(=O)c1c(C)[nH]c(C(=O)CN2C(=O)NC(C)(c3ccc4c(c3)OCCO4)C2=O)c1C (stereo not drawn) [AC123] | 
6.42 ± 0.06 | 380 | 94 ± 3 | Nonspecific ≥ 100 μM |  |  |  | CCc1cccc2c(C(=O)CN3C(=O)NC(C)(c4ccc5c(c4)OCO5)C3=O)c[nH]c12 (stereo not drawn) [AC206] | 
7.03 ± 0.02 | 90 | 106 ± 1 |  | 7.51 ± 0.28 | 31 | 69.37 ± 8.01 | COc1cc(OC)cc(C(=O)NN2C(=O)NC(C)(c3ccccc3)C2=O)c1 (stereo not drawn) [AC224] | 
6.71 ± 0.14 | 190 | 103 ± 1 |  | 7.03 ± 0.14 |  | 78.70 ± 4.05 | CC1(c2ccc3c(c2)OCO3)NC(=O)N(CC(=O)N2CCc3ccccc32)C1=O (stereo not drawn) [AC197] | 
6.68 ± 0.02 | 210 | 106 ± 4 |  | 7.41 ± 0.30 | 39 | 62.32 ± 6.66 | C=CCN(CC=C)C(=O)CN1C(=O)NC(C)(c2ccc3c(c2)OCCO3)C1=O (stereo not drawn) [AC194] | 
7.02 ± 0.11 | 90 | 103 ± 1 |  | 7.65 ± 0.13 | 22 | 79.10 ± 3.19 | Cc1ccc(C(C)NC(=O)NCC(=O)NCC2CC2)cc1F (stereo not drawn) [AC177] | 
